The term melting point denotes the temperature of the solid-liquid transition. `CS(=O)(=O)Nc1ccccc1OCCCN1CCC(OC(c2ccsc2)c2ccsc2)CC1` displayed a melting point of 92 to 94 °C.
As for `COC(=O)C1Cc2c([nH]c3ccccc23)C(c2ccc(Cl)cc2Cl)N1` (centres undefined), the figure is 128 to 130 °C.
The figure for `N#Cc1cc2c(cc1C(F)(F)F)[nH]c(=O)c(=O)n2OCC(=O)O` is 257 °C; for `Cc1c(F)c(F)cc(C#N)c1Cl` it is 59 to 61 °C.
The figure for `CC(C)OCCC(=O)C=P(c1ccccc1)(c1ccccc1)c1ccccc1` is 66 to 70 °C.
`O=C(COCc1ccccc1Cl)Nc1ccccc1` had a melting point of 130 to 132 °C.
For `CC(=O)c1nc2cc(C(F)(F)F)c(Cl)cc2n1-c1ccc(CCNC(=O)NS(=O)(=O)c2ccc(C)cc2)cc1`, the melting point worked out at 225 °C.
The figure for `COc1ccccc1N(CC(=O)OC(C)(C)C)C(=O)CNC(=O)Nc1cccc(C)c1` is 171 °C; for `CCCn1c(=O)c2[nH]c(C(C)(C)C)nc2n(CCNC(C)=O)c1=O` it is 194 to 195 °C; for `O=c1oc(-c2ccccc2)cc(O)c1SCCOc1ccccc1` it is 146 to 149 °C.
As for `CN=CN(C)c1nc(-c2cc(Cl)nc(Cl)c2)cs1`, the figure is 145 °C; as for `CCOC(=O)c1cccc(Nc2nc3ccccc3o2)c1`, 168 to 170 °C.
As for `CCCNC(=O)c1c(N)cc(Cl)cc1Cl`, the figure is 113 to 119 °C; as for `O=C(CC(=O)C1CC1)c1ccc2snnc2c1`, 142 to 144 °C; as for `CCCn1cnc2c1c(=O)n(CCCCCCOc1ccc(Cl)cc1)c(=O)n2C`, 50 to 51 °C.
Regarding `CC(C)(C)C(=O)CN1CCNC1=N[N+](=O)[O-]`, the melting point was 158 to 159 °C.
The figure for `Cc1ccc2c([nH]c3c(C(=O)N4CCOCC4)cccc32)c1C` is 183 °C; for `Cn1c(=O)oc2cc(CCN3CCN(c4ccc(F)cc4)CC3)ccc21` it is 161 to 164 °C; for `CCOC(=O)c1cn(CC)c2cc(-c3csc(CN(CCOC(C)=O)C(C)=O)n3)c(F)cc2c1=O` it is 148 to 152 °C.
The figure for `CN(C)Cc1ccc(Cn2ccc(OCc3ccc(F)cc3F)c(Br)c2=O)cc1` is 111 to 113 °C.
The figure for `O=[N+]([O-])c1ccc(OCc2ccc(F)cc2)cc1F` is 90 to 91 °C.
With `CCN1c2cc(N)ccc2N(C)C(=O)c2cccnc21`, the melting point was 193 to 195 °C.
As for `COc1ccc(C(=O)CN2CCN(C(c3ccccc3)c3ccccc3)CC2)c(OC)c1OC`, the figure is 119 °C; as for `C(#Cc1cccs1)C1=CCN(Cc2c[nH]c3ncccc23)CC1`, 191 to 193 °C; as for `CS(=O)(=O)NC(=O)C1(CCCCCCCCCCCCC2(C(N)=O)CC2)CC1`, 119 to 120 °C.
Take `Nc1cccc(C(=O)Nc2ccc(-c3c[nH]c(=O)cn3)cc2)c1`: the melting point is over 250 °C.
With `Cc1ccc(C(=O)O)c(NC(=O)CCCCNC(=O)OC(C)(C)C)c1`, the melting point turned out to be 212 °C.
The figure for `CCCc1nc2c(N)nc(C)c(C)c2n1CCOCc1ccccc1` is 99.5 to 100 °C; for `CC(=O)NC[C@H]1CC[C@H](C(=O)c2cc3c4c(c2)CCN4C(=O)CC3)CC1` it is 178 to 180 °C; for `CC(C)(C)C(NC(=O)c1ccc(Cl)cc1)Nc1c(Nc2cccc(F)c2)c(=O)c1=O` (centres undefined) it is 271 to 272 °C.
The figure for `Nc1ccc2[nH]nc(-c3ccccc3)c2c1` is 104 °C; for `O=C(CCCCCCCCC(=O)OC1CC(c2ccccc2)N(O)C(c2ccccc2)C1)OC1CC(c2ccccc2)N(O)C(c2ccccc2)C1` (centres undefined) it is 138 to 158 °C.
As for `C=C1C=CC2CC1C(Cc1ccc(OC)cc1)NC2=O` (centres undefined), the figure is 132 to 133 °C; as for `CCn1c(=O)c2c(nc(/C=C/c3cc(OC)c(O)c(OC)c3)n2C)n(CC)c1=O`, 226 °C.
Turning to `CCOc1cc(C(=O)c2c(-c3ccc(OC)cc3)sc3cc(OC)ccc23)cc(OCC)c1OCC`, the melting point is 108 to 110 °C.
As for `NC(=O)c1sc2nccc(N3CCCN(c4ccccc4)CC3)c2c1N`, the figure is 215 to 218 °C; as for `CC(C)(C)c1cc(CCc2ccc(F)cc2NC(=O)NC2CCN(Cc3ccccc3)CC2)cc(C(C)(C)C)c1O`, 118 to 119 °C.
Consider `Nc1cc(I)c(-c2cc([N+](=O)[O-])c(N)cc2I)cc1[N+](=O)[O-]`, for which the melting point lay within 346 to 348 °C.
As to `CCOC(=O)c1cn(C)c2cnc3cc(F)c(N4CCC[C@H]4CNc4ccccc4)cc3c2c1=O`, the melting point is 170 °C.
`Cn1c(CC#N)ccc1C(=O)c1ccc(Cl)cc1Cl` gave a melting point of 129 to 130 °C.
`CCc1c2c(nc3cc(F)c(F)cc13)-c1cc3c(c(=O)n1C2)COC(=O)CC3(O)CC` (centres undefined): the melting point is over 275 °C.
As for `NNc1c(Cl)c(Cl)nc(C(=O)O)c1Cl`, the figure is 166 to 168 °C; as for `CCCCCC[C@@H]1C[C@H](c2ccc(O)cc2)C(=O)O1`, 87 to 88 °C; as for `COc1c(N2CCC(n3ccnn3)C2)c(F)cc2c(=O)c(C(=O)O)cn(C3CC3)c12` (centres undefined), 200 to 201 °C.
The figure for `Cn1nc2c(-c3ccc(Cl)cc3Cl)cccc2c1-n1ccnc1` is 63 to 89 °C.
As for `O=[N+]([O-])c1cccc(F)c1CCO`, the figure is 42 to 44 °C.
The compound `CC(=O)OCC1Cc2cccc3c(C4=C(c5cn(C)c6ccccc56)C(=O)OC4=O)cn(c23)C1` (centres undefined) came in with a melting point of 198 to 200 °C.
The compound `CC(=O)NCc1ccc(CCl)cc1` gave a melting point of 116 to 118 °C.
As for `O=C1NCCCCC1(Br)Br`, the figure is 156 to 159 °C.
As for `COc1cc(-n2nc(C#N)cc2-c2ccc(S(C)(=O)=O)cc2)ccc1Br`, the figure is 212 to 214 °C; as for `CCOc1cccc(N2CCN(CCCCOc3ccc4c(n3)NC(=O)CC4)CC2)c1Cl`, 110 to 112 °C; as for `Cc1nn(-c2cccnc2)cc1NC1CC1`, 104 to 107 °C.
As for `COc1ccc(-c2nc(CCn3ccnc3)nc3cc(OC)c(OC)cc23)cc1OC`, the figure is 147 to 148 °C; as for `CCOC(=O)C1=C(c2ccccc2)Nc2n[nH]cc2C1c1ccccc1OC` (centres undefined), 195 °C.
The compound `CC(=O)c1cc(O)c(O)c([N+](=O)[O-])c1` showed a melting point of 159 to 160 °C.
The figure for `COc1ccc2c(c1)C(=O)c1c-2n(CCCCl)c(=O)c2ccccc12` is 195 to 198 °C; for `CCOc1ccc2c(=S)cc[nH]c2c1` it is 171 to 174 °C.
The compound `CCOC(=O)c1cn(-c2nnc(C)s2)c2nc(N3CC[C@H](N)C3)c(F)cc2c1=O` gave a melting point of 265 to 268 °C.
The figure for `COc1cc2c(cc1OC)C(=CN1CCN(C(=O)c3ccco3)CC1)C(=O)N2` is 158 to 160 °C.
As for `CS(=O)(=O)c1ccc(Cn2ccc(OCc3ccc(F)cc3F)c(Cl)c2=O)cc1`, the figure is 223 to 225 °C; as for `O=C(Nc1nccs1)c1c(C(F)(F)F)nc2cc(C(F)(F)F)ccc2c1O`, 270 °C; as for `CCC=NNC=C(C(=O)OCC)C(=O)c1cc(F)c(F)c(F)c1F`, 86 °C.
As for `O=C1CCCc2cc(O)cc(O)c21`, the figure is 209 to 210 °C; as for `CN1C(=O)CCc2cc(S(=O)(=O)Cl)ccc21`, 130 °C; as for `CCSc1ccc(Cl)c(C#N)n1`, 46 to 48 °C.
The compound `COC(=O)C1CC2=C(CO1)C(=O)c1cc3ccccc3c(OC(C)=O)c1C2=O` (centres undefined) registered a melting point of 196 to 198 °C.
`Clc1ccc2ncc(Br)n2n1` gave a melting point of 132 to 137 °C.
As for `CCOC(=O)C1=C(COCCNc2nc(C(C)=O)c[nH]2)NC(C)=C(C(=O)OC)C1c1cccc(Cl)c1Cl` (centres undefined), the figure is 177 °C; as for `O=C(O)CCc1cnoc1-c1ccc(C(F)(F)F)cc1`, 171 to 172 °C.
The compound `COc1ccc(CNC(=O)c2cn3c(=O)n(Cc4ccc(C(=O)O)cc4)c(=O)c(C)c3s2)cc1` yielded a melting point of over 210 °C.
For the compound `CC1CC(N)=NN1c1ccccn1` (centres undefined), the melting point was 154 to 157 °C.
As for `Cc1cncn1CC(=O)CCc1ccc(Cl)cc1`, the figure is 227 to 228 °C; as for `CCOC(=O)C1=NNC2C(=O)N(Cc3ccccc3)C(=O)C12` (centres undefined), 100 to 101 °C; as for `O=C(OC1C2CN(Cc3ccccc3)CC1CN(C(=O)c1ccc([N+](=O)[O-])cc1)C2)c1ccccc1` (centres undefined), 180 °C.
For the compound `CCc1c(C(C)C)nc(C(C)C)c(C(C)O)c1-c1ccc(F)cc1O` (centres undefined), the melting point was in the range of 190 to 191 °C.
The figure for `Oc1ncccc1C1(O)CCN(CC23CC(c4ccccc42)c2ccccc23)CC1` is 195 to 199 °C; for `CCN1CNS(=O)(=O)c2cc(O)ccc21` it is 214 to 218 °C; for `Cc1cc(N)c2c(c1Cl)CC(C)O2` (centres undefined) it is 157 to 160 °C.
The figure for `O=C(O)C(=NOCc1ccccc1)c1csc2ccccc12` is 120 to 121 °C; for `CCOC(=O)Cc1c(C)n(Cc2ccccc2)c2ccc(-c3ccccc3)cc12` it is 116 to 119 °C; for `O=C1c2c(-c3ccccc3)noc2CCC1CN1CCOCC1` (centres undefined) it is 140 to 141 °C.
The figure for `CCCCC(Cc1ccc(OCCNC(=O)c2ccc(-c3ccc(C(=O)OC)cc3)cc2)cc1)C(=O)OCC` (centres undefined) is 93 to 95 °C.
`COc1ccc2nc3ccc(OC)cc3c(Nc3cccc(COC(=O)NC(C)C)c3)c2c1` returned a melting point of 148 to 149 °C.
As for `CC(CF)(CF)C(O)C(Oc1cccc(C(F)(F)F)c1)n1ccnc1` (centres undefined), the figure is 107 to 120 °C.
As for `CC(C)CC(=O)Nc1cccc(-c2ccnc3c(-c4ccc(Oc5ccccc5)cc4)cnn23)c1`, the figure is 175 to 178 °C; as for `Cc1noc(C)c1-c1cn(Cc2ccccc2)c(=O)c2ccncc12`, 159 to 161 °C.
The figure for `CC(NC(=O)OC(C)(C)C)C(=O)Nc1cc(OCC(F)(F)F)ccc1-c1cccnc1` (centres undefined) is 149 to 152 °C; for `COc1ccc(S(=O)(=O)Oc2ccc3[nH]cc(C4CCN(C)CC4)c3c2)cc1` it is 186 to 187 °C.
Consider `O=[N+]([O-])c1ccc2c(c1)S(=O)(=O)c1cc([N+](=O)[O-])ccc1-2`, for which the melting point is 282 to 287 °C.

Source of the values: a melting point compilation (Tetko et al.; mined from patent text by program, amines drawn as free bases though some values may be those of a salt).
